Measured values: patent US20260035384A1, “COMPOUND CONTAINING CYCLOHEXYL” (CHIA TAI TIANQING PHARMACEUTICAL GROUP CO., LTD., priority 2022, published 2026)
Substitutions are numbered along the chain they refer to.

Columns and labels:
[1] = system: VCaP cells; assay: Assay on inhibitory activity for VCaP cell proliferation (CCK-8); type: cell-based; conditions: 168 h incubation
Method in brief: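 VCaP cells seeded at 1×10^5 cells/mL in phenol red-free DMEM with 5% charcoal-stripped FBS, treated in duplicate at 10000–0.61 nM final. After 168 h incubation, viability was read with CCK-8.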

[2] = system: LNCaP cells; assay: Assay on inhibitory activity for LNCaP cell proliferation (CCK-8); type: cell-based; conditions: 168 h incubation
Method in brief: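 Cells seeded at 1×10^5 cells/mL in phenol red-free 1640 with 2% CSS-FBS, treated at final 10000 nM-0.61 nM in duplicate. After 168 h incubation, viability read with CCK-8.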

[3] = molecular target: T1, AR in LNCaP cells (Homo sapiens, UniProt P10275, T878A); assay: Assay on degradation activity for AR in LNCaP cells (HTRF human androgen receptor detection kit); type: cell-based; conditions: 24 h incubation; for DC50: HTRF
T1 construct: Assay on Degradation Activity for AR in LNCaP Cells; endogenous in cells; host or cells: LNCaP cells
T1 sequence (P10275 1-920 T878A): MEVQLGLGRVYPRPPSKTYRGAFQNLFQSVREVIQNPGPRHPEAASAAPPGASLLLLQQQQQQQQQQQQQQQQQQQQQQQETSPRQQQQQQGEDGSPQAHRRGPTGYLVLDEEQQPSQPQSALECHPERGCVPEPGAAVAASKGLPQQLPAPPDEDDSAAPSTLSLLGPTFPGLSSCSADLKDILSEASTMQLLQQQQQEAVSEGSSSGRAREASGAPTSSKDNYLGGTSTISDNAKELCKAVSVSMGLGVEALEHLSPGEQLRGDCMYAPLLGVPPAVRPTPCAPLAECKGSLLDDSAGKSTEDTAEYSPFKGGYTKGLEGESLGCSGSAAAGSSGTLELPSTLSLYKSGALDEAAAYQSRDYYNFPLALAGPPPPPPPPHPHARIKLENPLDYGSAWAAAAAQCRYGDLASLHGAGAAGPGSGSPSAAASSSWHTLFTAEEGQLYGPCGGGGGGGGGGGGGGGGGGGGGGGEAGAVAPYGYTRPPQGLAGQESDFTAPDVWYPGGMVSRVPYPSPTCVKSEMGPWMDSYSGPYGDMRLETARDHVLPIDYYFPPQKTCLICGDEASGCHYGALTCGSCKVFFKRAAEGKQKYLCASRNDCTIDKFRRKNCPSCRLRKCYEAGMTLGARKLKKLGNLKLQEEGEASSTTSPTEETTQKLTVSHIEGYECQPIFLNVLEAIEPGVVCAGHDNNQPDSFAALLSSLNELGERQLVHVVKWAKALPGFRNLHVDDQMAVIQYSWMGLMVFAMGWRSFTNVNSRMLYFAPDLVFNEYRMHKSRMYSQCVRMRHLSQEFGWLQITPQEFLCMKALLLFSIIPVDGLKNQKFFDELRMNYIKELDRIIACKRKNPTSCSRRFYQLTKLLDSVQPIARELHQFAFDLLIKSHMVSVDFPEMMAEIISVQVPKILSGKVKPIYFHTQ
Protocol: (§1) The detection was carried out using the HTRF HUMAN ANDROGEN RECEPTOR DETECTION KIT (cisbio, 64ANDRPEG), 4× Supplemented Lysis buffer was prepared using the Blocking reagent stock solution (100×) and Lysis buffer stock solution (4×), and 1× Supplemented Lysis buffer was prepared using the 4× Supplemented Lysis buffer and ddH2O. Premixed antibody solutions were prepared using Detection buffer, Androgen Receptor Eu Cryptate antibody, and Androgen Receptor d2 antibody.
(§2) LNCaP cells in a good growth state were taken, washed with PBS, digested with pancreatin, and added with 2% CSS—FBS phenol red-free 1640 complete medium to terminate the digestion. The cells were collected by using a centrifuge tube, adjusted to a cell density of 1×10^6 cells/mL, and seeded in a 96-well plate (100 μL/well). The cells were incubated overnight in a cell incubator. Compounds were added using a nanoliter pipettor such that the final concentrations of the compounds were 500 nM-0.488 nM. Two duplicate wells were set for each concentration, and meanwhile, a control was set. After another 24 h of incubation in the cell incubator, the medium was pipetted out, the 1× Supplemented Lysis buffer was added at 40 μL/well to lyse the cells. After the cells were oscillated for 40 min at room temperature, 16 μL of the cell lysate was added to a 384-well plate, the Premixed antibody solutions were added at 4 μL/well, and the mixture was left to stand at 25° C. for 2 h. Fluorescence values were detected at 665 nm/620 nm using an Envision microplate reader, the four-parameter analysis was performed, the dose-response curves were fit, and DC50 (the concentration of the drug when the degradation rate reaches 50%) and Dmax (the maximum degradation rate) were calculated.

[4] = molecular target: T2, AR in VCaP cells (Homo sapiens, UniProt P10275); assay: Assay on degradation activity for AR in VCaP cells (HTRF human androgen receptor detection kit); type: cell-based; conditions: 24 h incubation
T2 construct: Assay on Degradation Activity for AR in VCaP Cells; endogenous in cells; host or cells: VCaP cells
T2 sequence (P10275 1-920): T1 sequence (P10275 1-920 T878A) with A878T
Protocol: as §1
as §2, with “VCaP” for “LNCaP”, “DMEM” for “1640”, “µL/well).” for “μL/well).”, “1000 nM-0.977” for “500 nM-0.488”

[5] = In vitro stability in liver microsome; type: in vitro ADME; conditions: human liver microsome 0.5 mg/mL, NADPH, 37° C.
Protocol: Liver microsome incubation samples (species: human, monkey, rat, and mouse) were prepared by mixing a PBS buffer (pH=7.4), a liver microsome solution (0.5 mg/mL), a test compound, and an NADPH+MgCl2 solution and incubated at 37° C. and 300 rpm for 1 h. Zero-hour samples were prepared by mixing a PBS buffer (pH=7.4), a liver microsome solution (0.5 mg/mL), and a test compound. An acetonitrile solution containing an internal standard was added to the samples, and supernatants were prepared by protein precipitation, diluted, and then assayed by LC/MS/MS.

Row | Structure (SMILES) | IC50 ([1]; Homo sapiens) | IC50 ([2]; Homo sapiens) | DC50 [3] | Dmax ([3]; maximum degradation rate) | DC50 [4] | IC50 ([1]; Homo sapiens, VCaP, 168 h) | IC50 [1] | IC50 [2] | Degradation activity for AR in LNCaP cells (Dmax, %) ([3]; maximum degradation rate) | Human liver microsome Residuals at 60 min (%) [5]
1 | N#Cc1ccc(O[C@H]2CC[C@H](NC(=O)c3ccc(N4CCC5(CC4)CC(CN4CCc6ccc7c(C8CCC(=O)NC8=O)noc7c6CC4)C5)nn3)CC2)cc1Cl (some centres unmarked) [Compound 37] | < 100 nM | < 1000 nM | ≤ 20 nM | > 80% | ≤ 1 nM | – | – | – | – | –
2 | N#Cc1ccc(O[C@H]2CC[C@H](NC(=O)c3ccc(N4CCN(C5CN(CC6Cc7ccc8c(C9CCC(=O)NC9=O)coc8c7C6)C5)CC4)nn3)CC2)cc1Cl (some centres unmarked) [Compound 107] | – | < 1000 nM | ≤ 20 nM | > 80% | ≤ 1 nM | < 10 nM | – | – | – | –
3 | N#Cc1ccc(O[C@H]2CC[C@H](NC(=O)c3cnc(N4CCN(C5CN(CC6Cc7ccc8c(C9CCC(=O)NC9=O)coc8c7C6)C5)CC4)nc3)CC2)cc1Cl (some centres unmarked) [Compound 110] | – | – | ≤ 20 nM | – | ≤ 1 nM | – | < 100 nM | < 1000 nM | >80% | –
4 | CN(c1ccc(C#N)c(Cl)c1)[C@H]1CC[C@H](NC(=O)c2ccc(N3CCC(CN4CCc5c(ccc6c(C7CCC(=O)NC7=O)noc56)C4)CC3)nn2)CC1 (some centres unmarked) [Compound 118] | < 100 nM | < 1000 nM | ≤ 20 nM | > 80% | ≤ 1 nM | – | – | – | – | –
5 | N#Cc1ccc(O[C@H]2CC[C@H](NC(=O)c3ccc(N4CCC5(CC4)CN(C4Cc6ccc7c(C8CCC(=O)NC8=O)noc7c6C4)C5)nn3)CC2)cc1Cl (single isomer, unassigned) [Compound 25] | – | – | – | – | – | – | – | < 1000 nM | – | >85%
6 | N#Cc1ccc(O[C@H]2CC[C@H](NC(=O)c3cnc(N4CCC(CN5CCc6c(ccc7c(C8CCC(=O)NC8=O)noc67)C5)CC4)cn3)CC2)cc1Cl (some centres unmarked) [Compound 145] | < 100 nM | < 1000 nM | ≤ 20 nM | > 80% | ≤ 1 nM | – | – | – | – | –
7 | N#Cc1ccc(O[C@H]2CC[C@H](NC(=O)c3ccc(N4CCC5(CC4)CC(CN4CCc6c(ccc7c(C8CCC(=O)NC8=O)noc67)C4)C5)nn3)CC2)cc1Cl (some centres unmarked) [Compound 36] | < 10 nM | < 1000 nM | ≤ 20 nM | > 80% | ≤ 1 nM | – | – | – | – | –
8 | N#Cc1ccc(O[C@H]2CC[C@H](NC(=O)c3ccc(N4CCC(CN5CC(CN6Cc7cc8onc(C9CCC(=O)NC9=O)c8cc7C6)C5)CC4)nn3)CC2)cc1Cl (some centres unmarked) [Compound 102] | – | < 1000 nM | ≤ 20 nM | > 80% | ≤ 1 nM | < 10 nM | – | – | – | –
9 | N#Cc1ccc(O[C@H]2CC[C@H](NC(=O)c3ccc(N4CCC5(CC4)CN(C4Cc6ccc7c(C8CCC(=O)NC8=O)noc7c6C4)C5)nn3)CC2)cc1Cl (single isomer, unassigned) [Compound 24] | – | < 1000 nM | – | – | – | – | – | – | – | >85%
10 | CN(c1ccc(C#N)c(Cl)c1)[C@H]1CC[C@H](NC(=O)c2cnc(N3CCC(CN4CCc5c(ccc6c(C7CCC(=O)NC7=O)noc56)C4)CC3)nc2)CC1 (some centres unmarked) [Compound 117] | < 100 nM | < 1000 nM | ≤ 20 nM | > 80% | ≤ 1 nM | – | – | – | – | –
11 | N#Cc1ccc(O[C@H]2CC[C@H](NC(=O)c3cnc(N4CCN(C5CN(CC6Cc7ccc8c(C9CCC(=O)NC9=O)coc8c7C6)C5)CC4)nc3)CC2)cc1Cl (some centres unmarked) [Compound 109] | – | < 1000 nM | ≤ 20 nM | > 80% | ≤ 1 nM | < 100 nM | – | – | – | –
12 | N#Cc1ccc(O[C@H]2CC[C@H](NC(=O)c3ccc(N4CCC(N5CC(CN6CCc7ccc8c(C9CCC(=O)NC9=O)noc8c7C6)C5)CC4)nn3)CC2)cc1Cl (some centres unmarked) [Compound 91] | – | < 1000 nM | ≤ 20 nM | > 80% | ≤ 1 nM | < 10 nM | – | – | – | –
13 | N#Cc1ccc(O[C@H]2CC[C@H](NC(=O)c3ccc(N4CCC(N5CC(CN6Cc7ccc8c(C9CCC(=O)NC9=O)coc8c7C6)C5)CC4)nn3)CC2)cc1Cl (some centres unmarked) [Compound 98] | – | < 1000 nM | ≤ 20 nM | > 80% | ≤ 1 nM | < 100 nM | – | – | – | –
